Like-named read-outs stand apart in the source and are kept apart here.
What was measured:
[1] = test system: Phosphorylation of ERK½ in A549 cells; experiment: Phospho-ERK½ MSD Assay in A549 cells; assay type: cell-based; conditions: 4 hours compound treatment, 10 ng/mL EGF for 10 min, read-out: p-ERK IC50 (A549)
Experimental: (§1) Phospho-ERK½ MSD Assay: MIA PaCa-2 (ATCC® CRL-1420™) and A549 (ATCC® CCL-185™) cells were cultured in RPMI 1640 Medium (ThermoFisher Scientific 11875093) containing 10% fetal bovine serum (ThermoFisher Scientific 16000044) and 1× penicillin-streptomycin-glutamine (ThermoFisher Scientific 10378016). Sixteen hours prior to compound treatment, MIA PaCa-2 or A549 cells were seeded in 96-well cell culture plates at a density of 25,000 cells/well and incubated at 37° C., 5% CO2. A compound dose-response titration was diluted in growth media, added to appropriate wells of a cell culture plate, and then incubated at 37° C., 5% CO2 for 4 hours. Following compound treatment, cells were stimulated with 10 ng/mL EGF (Roche 11376454001) for 10 min, washed with ice-cold Dulbecco's phosphate-buffered saline, no Ca^2+ or Mg^2+ (ThermoFisher Scientific 14190144), and then lysed in RIPA buffer (50 mM Tris-HCl pH 7.5, 1% Igepal, 0.5% sodium deoxycholate, 150 mM NaCl, and 0.5% sodium dodecyl sulfate) containing protease inhibitors (Roche 4693132001) and phosphatase inhibitors (Roche 4906837001). Cell lysates were stored frozen at −80° C. overnight. Phosphorylation of ERK½ in compound-treated lysates was assayed using Phospho-ERK½ Whole Cell Lysate kits (Meso Scale Discovery K151DWD) according to the manufacturer's protocol. Assay plates were read on a Meso Scale Discovery Sector Imager 6000, and data were analyzed using a 4-parameter logistic model to calculate IC50 values.

[2] = target: GDP-bound protein (aa 1-169), containing both G12C and C118A amino acid substitutions (Homo sapiens, UniProt P01116, C118A/G12C); experiment: Coupled Nucleotide Exchange Assay (SOS-mediated nucleotide exchange, AlphaScreen); assay type: biochemical; conditions: 2 hours compound pre-incubation
Summary of the method: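 AlphaScreen signal after SOS (aa 564-1049)/GTP-driven exchange (1 h) on GDP-loaded His-[…] G12C/C118A (aa 1-169), following a 2 h compound pre-incubation in HEPES pH 7.4 buffer with 10 mM MgCl2 and 0.01% Triton X-100. IC50s fitted by 4-parameter logistic model.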

[3] = test system: Phosphorylation of ERK½ in MIA PaCa-2 cells; experiment: Phospho-ERK½ MSD Assay in MIA PaCa-2 cells; assay type: cell-based; conditions: 4 hours compound treatment, 10 ng/mL EGF for 10 min, read-out: p-ERK IC50 (MIA PaCa-2)
Experimental: as §1

[4] = Homo sapiens, MIA PaCa-2, MIA PaCa-2 cells

Chain of GDP-bound protein (aa 1-169), containing both G12C and C118A amino acid substitutions (P01116 1-169 isoform P01116-2 G12C/C118A): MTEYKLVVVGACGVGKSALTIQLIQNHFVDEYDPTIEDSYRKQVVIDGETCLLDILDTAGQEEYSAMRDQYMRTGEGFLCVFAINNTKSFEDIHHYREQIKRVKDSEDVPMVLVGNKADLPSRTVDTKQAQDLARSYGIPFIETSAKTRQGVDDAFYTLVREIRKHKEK

Structure (SMILES) | IC50 ([1]; Homo sapiens, A549, A549 cells) [µM] | Coupled exchange IC50 [2] [µM] | IC50 [3, 4] [µM] | IC50 ([1]; A549 cells) [µM] | IC50 ([3]; MIA PaCa-2 cells) [µM]
C=CC(=O)N1CCN(c2snc3c(F)c(-c4cc(O)c(F)cc4F)c(Cl)cc23)CC1 [Example 3-10, 1-(4-(5-chloro-6-(2,4-difluoro-5-hydroxyphenyl)-7-fluoro-2,1-benzothiazol-3-yl)-1-piperazinyl)-2-propen-1-one] | 11.1 | 4.74 | 66.4 |  | 
C=CC(=O)N1CCN(c2snc3nc(-c4cc(O)cc5ccccc45)c(Cl)cc23)CC1 [Example 2-1, 1-(4-(5-chloro-6-(3-hydroxy-1-naphthalenyl)[1,2]thiazolo[3,4-b]pyridin-3-yl)-1-piperazinyl)-2-propen-1-one] | 3.7 | 0.341 | 1.89 |  | 
C=CC(=O)N1CCN(c2snc3c(F)c(-c4c(C)ccc5[nH]ncc45)c(Cl)cc23)CC1 [Example 3-5, 1-(4-(5-chloro-7-fluoro-6-(5-methyl-1H-indazol-4-yl)-2,1-benzothiazol-3-yl)-1-piperazinyl)-2-propen-1-one] | 3.7 | 0.693 | 5.26 |  | 
C=CC(=O)N1CCN(c2snc3c(F)c(-c4c[nH]c5ccccc45)c(Cl)cc23)CC1 [Example 1-2, 1-(4-(5-chloro-7-fluoro-6-(1H-indol-3-yl)-2,1-benzothiazol-3-yl)-1-piperazinyl)-2-propen-1-one] | > 100 | 2.38 | 6.08 |  | 
C=CC(=O)N1CCN(c2snc3c(F)c(-c4cc(O)cc5ccccc45)c(Cl)cc23)C(CO)C1 (racemic) [Example 1-18, 1-(4-(5-chloro-7-fluoro-6-(3-hydroxy-1-naphthalenyl)-2,1-benzothiazol-3-yl)-3-(hydroxymethyl)-1-piperazinyl)-2-propen-1-one] | > 33.3 | 0.370 | 0.559 |  | 
C=CC(=O)N1CCN(c2nnc(C3CC3)c3cc(-c4c(O)cccc4F)c(Cl)cc23)CC1 [Example 12, 1-(4-(7-Chloro-4-cyclopropyl-6-(2-fluoro-6-hydroxyphenyl)-1-phthalazinyl)-1-piperazinyl)-2-propen-1-one] | > 100 | 3.34 | 25.9 |  | 
C=CC(=O)N1CCN(c2snc3cc(-c4cc(OC)cc5ccccc45)c(Cl)cc23)CC1 [Example 1-4, 1-(4-(5-chloro-6-(3-methoxy-1-naphthalenyl)-2,1-benzothiazol-3-yl)-1-piperazinyl)-2-propen-1-one] | > 100 | >10 | > 100 |  | 
C=CC(=O)N1CCN(c2nnc(Cc3ccc(F)cc3)c3cc(-c4c(O)cccc4F)c(Cl)cc23)CC1 [Example 29, 1-(4-(7-Chloro-4-(4-fluorobenzyl)-6-(2-fluoro-6-hydroxyphenyl)-1-phthalazinyl)-1-piperazinyl)-2-propen-1-one] | > 100 | 3.76 | > 100 |  | 
C=CC(=O)N1CCN(c2nc(=O)n(-c3ccccc3C(C)C)c3cc(-c4c(C)ccc5[nH]ncc45)c(Cl)cc23)[C@@H](C)C1 (single isomer, unassigned) [Example 11-2-1] |  | 0.219 |  | 10 | 0.054
C=CC(=O)N1CCN(c2snc3c(F)c(-c4cc(N)nc5ccccc45)c(Cl)cc23)CC1 [Example 26, 1-(4-(6-(2-amino-4-quinolinyl)-5-chloro-7-fluoro-2,1-benzothiazol-3-yl)-1-piperazinyl)-2-propen-1-one] | > 100 | 3.90 | 30.3 |  | 
C=CC(=O)N1CCN(c2snc3c(F)c(-c4cc(O)ccc4Br)c(Cl)cc23)CC1 [Example 1-1, 1-(4-(6-(2-bromo-5-hydroxyphenyl)-5-chloro-7-fluorobenzo[c]isothiazol-3-yl)piperazin-1-yl)prop-2-en-1-one] | > 33.3 | 0.355 | 2.55 |  | 
C=CC(=O)N1CCN(c2snc3c(F)c(-c4c(C)ccc5[nH]ncc45)c(Cl)cc23)[C@@H](C)C1 [Example 1-10, 1-((3S)-4-(5-chloro-7-fluoro-6-(5-methyl-1H-indazol-4-yl)-2,1-benzothiazol-3-yl)-3-methyl-1-piperazinyl)-2-propen-1-one] | 11.1 | 0.381 | 1.09 |  | 
C=CC(=O)N1CCN(c2snc3c(F)c(-c4c(C5CC5)ccc5[nH]ncc45)c(Cl)cc23)CC1 [Example 23, 1-(4-(5-chloro-6-(5-cyclopropyl-1H-indazol-4-yl)-7-fluoro-2,1-benzothiazol-3-yl)-1-piperazinyl)-2-propen-1-one] | > 33.3 | 3.29 | 3.21 |  | 

Continued, values first:

IC50 ([1]; Homo sapiens, A549, A549 cells) [µM] | Coupled exchange IC50 [2] [µM] | IC50 [3, 4] [µM] | IC50 ([1]; A549 cells) [µM] | IC50 ([3]; MIA PaCa-2 cells) [µM] | Structure (SMILES)
> 100 | 1.34 | 12.9 |  |  | C=CC(=O)N1CCN(c2nnc(-c3cccnc3C)c3cc(-c4c(O)cccc4F)c(Cl)cc23)CC1 [Example 10-8]
> 100 | 0.875 | 2.86 |  |  | C=CC(=O)N(C)C1CN(c2snc3c(F)c(-c4cc(O)cc5ccccc45)c(Cl)cc23)C1 [Example 5-1, N-(1-(5-Chloro-7-fluoro-6-(3-hydroxy-1-naphthalenyl)-2,1-benzothiazol-3-yl)-3-azetidinyl)-N-methyl-2-propenamide]
66.5 | 0.101 | 0.117 |  |  | C=CC(=O)N1CCN(c2nc(=O)n(-c3ccccc3C(C)C)c3cc(-c4cccc(Cl)c4Cl)c(Cl)cc23)[C@@H](C)C1 [Example 9-10, 6-chloro-7-(2,3-dichlorophenyl)-4-((2S)-2-methyl-4-(2-propenoyl)-1-piperazinyl)-1-(2-(2-propanyl)phenyl)-2(1H)-quinazolinone]
> 33.3 | 0.433 | 1.2 |  |  | C=CC(=O)N1C[C@@H]2[C@H]1CCN2c1snc2c(F)c(-c3cc(O)cc4ccccc34)c(Cl)cc12 (racemic) [Example 5-8, 1-(cis-2-(5-Chloro-7-fluoro-6-(3-hydroxy-1-naphthalenyl)-2,1-benzothiazol-3-yl)-2,6-diazabicyclo[3.2.0]heptan-6-yl)-2-propen-1-one]
> 100 | 1.73 | 5.83 |  |  | C=CC(=O)N1CCN(c2snc3c(F)c(-c4cc(O)cc5ccccc45)c(Cl)cc23)C(C(=O)OC)C1 (racemic) [Example 7-3, methyl 4-acryloyl-1-(5-chloro-7-fluoro-6-(3-hydroxynaphthalen-1-yl)benzo[c]isothiazol-3-yl)piperazine-2-carboxylate]
3.7 | 0.537 | 1.3 |  |  | C=CC(=O)N1CCN(c2snc3c(F)c(-c4nc(N)ccc4Cl)c(Cl)cc23)CC1 [Example 6-1, 1-(4-(6-(6-Amino-3-chloro-2-pyridinyl)-5-chloro-7-fluoro-2,1-benzothiazol-3-yl)-1-piperazinyl)-2-propen-1-one]
> 100 | 0.180 | 0.222 |  |  | C=CC(=O)N1CCN(c2snc3c(F)c(-c4cc(O)cc5ccccc45)c(Cl)cc23)[C@@H](CF)C1 (racemic) [Example 7-2, 1-(4-(5-chloro-7-fluoro-6-(3-hydroxy-1-naphthalenyl)-2,1-benzothiazol-3-yl)-3-(fluoromethyl)-1-piperazinyl)-2-pxopen-1-one]
